Measurements published in publication PMC10272112 (Nature Communications, 2023).
Where “and” joins values, the source holds several entries; their conditions need not be identical. Identical values can stand only once.

Legend:
α-Tubulin AcK40 = assay: α-tubulin acetylation detection by western blot, CBP-HA transfected HEK293T; format: cell-based; conditions: for α-Tubulin AcK40 acetylation level relative to control: HEK293T
Description: (§1) 0.2 × 10^6 HEK293T (ATCC: CRL-3216) cells were transfected with pcDNA 3.1-HA CBP plasmids (1 μg/well for the 6-well plate) by FuGENE. After 2 days, cells were treated with ACY-738, lipoic acid, and lipoamide for 7 h, then were washed by ice-cold PBS and lysed in Triton lysis buffer (50 mM Tris, pH 8.0, 150 mM NaCl, 1 mM EDTA, 0.1% TritonX-100 and complete EDTA-free protease inhibitors (Roche)) for analysis. To detect protein acetylation, 0.2 μM Trichostatin A and 5 mM nicotinamide were added to PBS for washing, and 10 μM trichostatin A, 10 mM nicotinamide, and 50 mM sodium butyrate were added to Triton lysis buffer.

HDAC6 = biological target: T1, HDAC6 (Homo sapiens, UniProt Q9UBN7); assay: HDAC-Glo assay; format: biochemical; parameters: purchased BPS Bioscience 50006; conditions: for HDAC6 relative activity: sheet S2b
T1 sequence (Q9UBN7 1-1215): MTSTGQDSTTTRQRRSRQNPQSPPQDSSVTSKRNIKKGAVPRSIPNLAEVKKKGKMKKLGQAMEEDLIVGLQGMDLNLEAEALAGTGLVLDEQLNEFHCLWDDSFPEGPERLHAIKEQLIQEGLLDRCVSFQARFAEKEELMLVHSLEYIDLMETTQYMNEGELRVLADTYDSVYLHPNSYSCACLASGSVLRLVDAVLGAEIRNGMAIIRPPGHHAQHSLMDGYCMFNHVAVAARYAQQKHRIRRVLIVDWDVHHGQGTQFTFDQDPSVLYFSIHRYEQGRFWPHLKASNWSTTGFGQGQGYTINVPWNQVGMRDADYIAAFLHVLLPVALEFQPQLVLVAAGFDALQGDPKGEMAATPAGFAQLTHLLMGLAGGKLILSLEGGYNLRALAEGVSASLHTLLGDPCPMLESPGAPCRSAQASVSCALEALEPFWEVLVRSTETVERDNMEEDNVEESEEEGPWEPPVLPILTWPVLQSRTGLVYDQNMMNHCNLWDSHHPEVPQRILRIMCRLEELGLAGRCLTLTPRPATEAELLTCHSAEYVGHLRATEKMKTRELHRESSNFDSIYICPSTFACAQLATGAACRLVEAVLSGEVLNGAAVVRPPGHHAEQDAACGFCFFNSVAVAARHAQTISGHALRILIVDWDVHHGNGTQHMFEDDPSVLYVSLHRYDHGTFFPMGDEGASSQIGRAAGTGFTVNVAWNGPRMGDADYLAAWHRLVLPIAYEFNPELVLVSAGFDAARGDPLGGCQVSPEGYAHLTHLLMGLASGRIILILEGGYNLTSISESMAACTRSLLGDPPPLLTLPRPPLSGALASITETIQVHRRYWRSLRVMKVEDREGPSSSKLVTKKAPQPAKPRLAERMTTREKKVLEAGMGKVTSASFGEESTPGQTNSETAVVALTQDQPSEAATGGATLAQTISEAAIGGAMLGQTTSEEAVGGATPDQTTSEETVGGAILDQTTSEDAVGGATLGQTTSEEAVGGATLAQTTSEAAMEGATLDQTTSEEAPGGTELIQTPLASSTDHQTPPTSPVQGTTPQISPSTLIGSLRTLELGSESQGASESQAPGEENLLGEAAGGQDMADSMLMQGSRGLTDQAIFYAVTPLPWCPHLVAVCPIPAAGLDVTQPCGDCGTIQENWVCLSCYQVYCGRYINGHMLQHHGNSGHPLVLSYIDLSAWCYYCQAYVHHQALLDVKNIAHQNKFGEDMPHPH

DDX3X AcK118 = assay: DDX3X acetylation detection by western blot, CBP-HA transfected HEK293T; format: cell-based
Description: as §1

HDAC1 = HDAC1 (Homo sapiens, UniProt Q13547); assay: HDAC-Glo assay; format: biochemical; parameters: purchased BPS Bioscience 50051; conditions: for raw luminescence signal, HDAC1 inhibition: 0.5 M TCEP; for HDAC1 relative activity: sheet S2b
HDAC1, sequence (Q13547 whole entry): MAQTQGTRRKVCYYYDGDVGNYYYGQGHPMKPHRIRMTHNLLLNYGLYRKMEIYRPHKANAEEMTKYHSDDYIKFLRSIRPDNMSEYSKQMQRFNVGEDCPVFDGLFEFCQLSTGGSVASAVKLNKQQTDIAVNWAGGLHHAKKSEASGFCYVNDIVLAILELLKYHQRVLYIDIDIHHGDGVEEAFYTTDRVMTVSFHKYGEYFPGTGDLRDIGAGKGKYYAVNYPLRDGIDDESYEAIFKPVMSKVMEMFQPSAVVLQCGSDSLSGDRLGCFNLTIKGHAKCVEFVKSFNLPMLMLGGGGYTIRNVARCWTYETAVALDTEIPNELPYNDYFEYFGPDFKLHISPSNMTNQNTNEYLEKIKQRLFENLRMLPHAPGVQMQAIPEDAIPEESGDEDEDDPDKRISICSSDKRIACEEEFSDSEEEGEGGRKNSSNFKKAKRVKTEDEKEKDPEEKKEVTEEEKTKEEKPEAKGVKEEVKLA

[1] = read-out: log EC50 from dose-dependent HDAC inhibition curves (converted)

NC(=O)CCCCC1CCSS1 (racemic) [(R/S)-LM, (R/S)-lipoamide]
concentration showing substantial increase of α-Tubulin AcK40 acetylation (α-Tubulin AcK40; 7 h drug incubation): 50 µM
α-Tubulin AcK40 acetylation level relative to control (α-Tubulin AcK40; 1 mM): 4.0 fold
α-Tubulin AcK40 acetylation level relative to control (α-Tubulin AcK40; 1 mM, listed as LM): 4 fold
α-Tubulin AcK40 acetylation level relative to control (α-Tubulin AcK40; .5 (mM)): 2.5 fold
EC50 (HDAC6; [1]): 0.931 µM
HDAC6 relative activity (HDAC6; log conc -3.30103): 75.3248 and 75.1005 and 70.3242
HDAC6 relative activity (HDAC6; log conc -3.82945): 95.4583 and 94.7241 and 92.4168
HDAC6 relative activity (HDAC6; log conc -4.35788): 101.41 and 101.875 and 100.004
HDAC6 relative activity (HDAC6; log conc -4.88629): 103.293 and 100.632 and 100.653
HDAC6 relative activity (HDAC6; log conc -5.41477): 102.294 and 103.492 and 99.8033
HDAC6 relative activity (HDAC6; log conc -5.94309): 101.321 and 102.657 and 100.612
HDAC6 relative activity (HDAC6; log conc -6.47756): 107.714 and 104.061 and 103.825
HDAC6 relative activity (HDAC6; log conc -6.87615): 97.9564 and 94.6265 and 91.4846
DDX3X AcK118 acetylation level relative to control (DDX3X AcK118; 1 mM): 2.4 fold
DDX3X AcK118 acetylation level relative to control (DDX3X AcK118; .5 (mM)): 2.1 fold
raw luminescence signal, HDAC1 inhibition (HDAC1; log10 M -3.30103, 3 technical replicates): 5424 and 5479 and 5403
raw luminescence signal, HDAC1 inhibition (HDAC1; log10 M -3.82945, 3 technical replicates): 13727 and 13267 and 13133
raw luminescence signal, HDAC1 inhibition (HDAC1; log10 M -4.35788, 3 technical replicates): 41841 and 41621 and 40313
raw luminescence signal, HDAC1 inhibition (HDAC1; log10 M -4.88629, 3 technical replicates): 92316 and 92590 and 94920
raw luminescence signal, HDAC1 inhibition (HDAC1; log10 M -5.41477, 3 technical replicates): 199427 and 199193 and 204666
raw luminescence signal, HDAC1 inhibition (HDAC1; log10 M -5.94309, 3 technical replicates): 291058 and 290664 and 291270
raw luminescence signal, HDAC1 inhibition (HDAC1; log10 M -6.47756, 3 technical replicates): 353511 and 347886 and 348635
raw luminescence signal, HDAC1 inhibition (HDAC1; log10 M -6.87615, 3 technical replicates): 348604 and 343316 and 346349
EC50 (HDAC1; [1]): 4.62 µM
HDAC1 relative activity (HDAC1; log conc -3.30103): 71.5662 and 71.4067 and 71.4672
HDAC1 relative activity (HDAC1; log conc -3.82945): 85.3568 and 84.4089 and 84.9362
HDAC1 relative activity (HDAC1; log conc -4.35788): 99.571 and 98.7787 and 97.4651
HDAC1 relative activity (HDAC1; log conc -4.88629): 94.8867 and 95.3188 and 94.2715
HDAC1 relative activity (HDAC1; log conc -5.41477): 102.996 and 104.783 and 104.694
HDAC1 relative activity (HDAC1; log conc -5.94309): 100.727 and 101.673 and 102.371
HDAC1 relative activity (HDAC1; log conc -6.47756): 104.216 and 103.707 and 104.551
HDAC1 relative activity (HDAC1; log conc -6.87615): 97.8849 and 97.6343 and 99.4595
